Broadly, the IC50 is the concentration that inhibits the measured activity by half. Higher therefore signals lower potency.

Each structure is given as a SMILES string. Some results are limits rather than exact numbers.

This note sets out measurements from article PMC7464537, “Jaceidin Flavonoid Isolated from Chiliadenus montanus Attenuates Tumor Progression in Mice via VEGF Inhibition: In Vivo and In Silico Studies” (Plants, 2020).

In experiment [1] the test system is liver cancer cell line (HepG2). Nature of the experiment: SRB cytotoxicity assay, liver cancer cell line. The format is cell-based. To be noted: Homo sapiens, 48 h incubation, triplicate, ±SD. On the procedure: (§1) The cytotoxic activity of the isolated compounds was measured in vitro against a human liver cancer cell line (HEPG2), a human breast cancer cell line (MCF-7) and a human melanocyte (normal cell line) (HFB-4) in comparison to Doxorubicin, using sulforhodamine B (SRB) assay. Human tumor cell lines (MCF-7, HepG2) used in this study were obtained from the American Type Culture collection (ATCC, Manassas, VA, USA). The tumor cell lines were maintained at the National Cancer Institute, Cairo, Egypt, by serial sub culturing. Cells were seeded in 96-well microliter plates at initial concentration of (3 × 10^3 cell/well) in a fresh medium and left for 24 h to attach to the plates before treatment of the tested compounds. Tested compounds were dissolved in DMSO and diluted with saline to the appropriate volume. After 24 h, cells were incubated with the appropriate concentration ranges of drugs (0, 12.5, 25, 50, 100 µg/mL), the wells were diluted to 150 µL with fresh medium and incubation was continued for 48 h at 37 °C. Control cells were treated with vehicle alone. Three wells were used for each drug concentration. After 48 h incubation, the cells were fixed with 50 µL of cold 10% trichloroacetic acid for 1 h at 4 °C, washed 5 times with distilled water using (Automatic Washer Tecan, Heidelberg, Germany) and then stained for 30 min at room temperature with 50 µL 0.4% SRB dissolved in 1% acetic acid. The wells were then washed 4 times with 1% acetic acid. The plates were air dried and the dye was solubilized with 100 µL/well 10 mM tris base (pH = 10.5). The Optical density (O.D.) of each well was measured spectrophotometrically at 570 nm with an ELISA microplate reader (sunrise Tecan reader, Germany). The percentage of cell survival was calculated as follows:(1) Surviving fraction=O.D.(treated cells)/O.D.(control cells)
(§2) The relation between surviving fraction and compound concentration was plotted to get the survival curve for tumor cell line after the specified time.
A general note: Sulforhodamine B stains cellular protein and so reports cell mass.

Experiment [2] deals with breast cancer cell line (MCF-7). Nature of the experiment: SRB cytotoxicity assay, breast cancer cell line. The format is cell-based. To be noted: Homo sapiens, MCF7, 48 h incubation, triplicate, ±SD. As to the method:
as §1, §2

The test system of experiment [3] is human melanocyte (normal cell line) (HFB-4). The experiment is described as follows: SRB cytotoxicity assay, normal cell line. In kind it is cell-based. To be noted: 48 h incubation, triplicate, ±SD. As to the method: as §1, §2
The test system of experiment [4] is GSH and MDA levels in tumor tissues. Nature of the experiment: ELISA of GSH and MDA levels in tumor homogenates. To be noted: extract 200 mg/kg or jaceidin 50 mg/kg three times weekly. In kind it is in vivo, female Swiss albino mice. As to the method: (§3) Groups 1: mice treated with saline (5 mL/kg). All therapies continued for 21 days. Group 2: mice treated with C. montanus extract 200 mg/kg three times weekly. Group 3: mice treated with Jaceidin 50 mg/kg three times weekly.
(§4) One day after the end of the experiment (day 21), mice were subjected to light ether anesthesia and sacrificed by cervical dislocation; blood samples were collected by cardiac puncture. Blood samples were maintained at room temperature for 30 min and centrifuged at 12,000× g for 10 min. Then, sera were separated and stored at −20 °C until used. An ELISA kit (Sun Red Biotechnology Company, Shanghai, China) was employed for estimating serum VEGF level according to the manufacturer’s protocol. The color intensity was measured at 450 nm using an automated ELISA reader (Europe S.A., Belgium). Tumor was dissected into two halves; the first half was kept at −20 °C to be used in estimating MDA and GSH levels. The second half was cut into small pieces, then fixed in 10% phosphate-buffered formalin for histopathological examination.
Using a frozen sample, a part of tumor was weighted and homogenized as 10% (w/v) in phosphate-buffered saline using a Teflon homogenizer (Glass col homogenizer system, Vernon Hills, IL, USA). Homogenates were then centrifuged at 15,000× g for 10 min at 4 °C. After centrifugation, the supernatants were collected into 2 dry tubes and kept at −80 °C. The levels of MDA and GSH were determined in the tumor homogenates of […] using ELISA kits for MDA (Catalog No. MBS741034) and GSH (Catalogue Number: MBS026635) according to the manufacturer’s instructions.
A general note: ELISA stands for enzyme-linked immunosorbent assay.

Experiment [5] relates to Ehrlich's ascites carcinoma (EAC) solid tumors. Nature of the experiment: In vivo antitumor activity: tumor weight and histopathology of EAC solid tumors. Set-up: species or system female Swiss albino mice. The following applies: extract 200 mg/kg or jaceidin 50 mg/kg three times weekly.
Description: Female Swiss albino mice with original body weight of 20–26 g and age of 8–10 weeks was used in the current experiment and fixed housing conditions were maintained at a normal dark/light cycle. Mice were housed in groups of six in polyethylene cages where food and water were provided ad libitum. The Research Ethics Committee at the Faculty of Pharmacy, Suez Canal University (license number 201809RA1), approved the study of protocol. Ehrlich’s Ascites Carcinoma is commonly employed as a solid form and easy to grow in suspension, when injected in the peritoneal cavity of female mice. Mice carrying the EAC cell line were obtained from the Department of Tumor Biology at the National Cancer Institute (Cairo, Egypt). The viability of EAC cells was ensured employing Trypan blue dye exclusion method. Then, EAC cells suspension was prepared in sterile saline solution to get a final working suspension; each 0.1 mL of which contained 2.5 million of EAC cells. At the beginning of the experiment, mice were shaved at their back, and inoculated with 0.1 mL of the EAC suspension.
Seven days after inoculation with the tumor cells in all female mice, mice were randomly divided into three groups, ten mice in each. The different treatments were started as follows;
as §3, §4
After fixation, samples were dehydrated in ascending grades of ethyl alcohol, cleared in xylol, embedded in paraffin wax, and then subjected to routine histopathological procedures. Sectioning was done at 5–7 µm thick followed by staining with Hematoxylin and Eosin (H&E). Digital imaging of representative areas was captured using image capture engine software (AMT V600.259) which attached to Olympus CX 41biocular microscope. Histopathological analysis of the digital images of solid tumor was performed by quantities the mitotic figures and tumor giant cells. For counting, ten sections from each experimental group were analyzed at scale bar 20 µm by using image J software that was developed by the National Institute of Health (Betheda, MD, USA). Histopathological examinations were evaluated blindly.

In experiment [6] the test system is vascular endothelial growth factor B (VEGF-B). The experiment is described as follows: ELISA of serum VEGF level in EAC-bearing mice. In kind it is in vivo, female Swiss albino mice. To be noted: extract 200 mg/kg or jaceidin 50 mg/kg three times weekly. As to the method:
as §3, §4

Where [7] appears, read: EAC solid tumors in female mice, 21 days.

Take `C=C(C)[C@@H]1CC[C@]2(C)CCC[C@](C)(O)[C@H]2C1` [Compound 1, Intermedeol]: the IC50 was 48.2 ± 0.3 µM in experiment [1], 45.6 ± 0.5 µM in experiment [2] and over 200 µM in experiment [3].
The matching figures for `C=C1CCC[C@]2(C)CCC(C(C)(C)O)C[C@@]12OO` (stereo partly drawn) [Compound 2, 5α-hydroperoxy-β-eudesmol]: 39.7 ± 0.65 µM, 41.5 ± 0.55 µM and over 200 µM.
Regarding `COc1ccc(-c2oc3cc(O)cc(O)c3c(=O)c2OC)cc1OC` [Compound 3, 5,7-dihydroxy-3,3’,4’-trimethoxyflavone], the IC50 in experiment [1] is 30.5 ± 0.61 µM; in experiment [2] it was 10.7 ± 0.4 µM; in experiment [3] it was over 200 µM.
For `COc1cc(-c2oc3cc(O)c(OC)c(O)c3c(=O)c2OC)ccc1O` [Compound 4, 5,7,4’-trihydroxy-3,6,3’-trimethoxyflavone], half-maximal inhibition in experiment [1] (IC50) required 9.7 ± 0.26 µM. Further, in experiment [4] (mean ± SD, tumor control 11.62 ± 1.96), the “GSH levels in tumor tissues” value is listed as 29.25 ± 3.36. In experiment [4] (mean ± SD, tumor control 15.18 ± 1.89), the “MDA levels in the tumor tissues” value is recorded as 4.25 ± 1.28. Further, in experiment [4] (tumor tissues), the “GSH increase compared to tumor control” value is 2.5 folds and the “MDA decrease compared to tumor control” value was found to be 72%. Besides, in experiment [5] (setting [7]), the mean tumor weight turned out to be 0.032 g and the “tumor weight decrease compared to tumor control” value amounted to 96.4%. Also, in experiment [5] (H&E histopathology, mean ± SD, tumor control 3.46 ± 0.68), the “necrosis in the tumor tissues” value worked out at 1.63 ± 0.68. In addition, the “number of tumor giant cells in the tumor tissues” value in experiment [5] (H&E histopathology, mean ± SD, tumor control 7.65 ± 2.48) came out at 1.30 ± 1.08. Also, in experiment [5] (H&E histopathology, mean ± SD, tumor control 31.45 ± 5.46), the “number of mitotic figures in the tumor tissues” value is 5.20 ± 2.35. For the same compound, in experiment [5] (H&E histopathology), the “mitotic figure decrease compared to tumor control” value is 83.47%, the “necrosis decrease compared to tumor control” value is 53.01% and the “tumor giant cell decrease compared to tumor control” value amounted to 83%. For the same compound, the “serum VEGF decrease compared to tumor control” value in experiment [6] turned out to be 61.7%. Besides, the “serum VEGF levels” value in experiment [6] (mean ± SD, tumor control 71.46 ± 1.88) is 27.3 ± 2.82. The compound also came in with an IC50 in experiment [2] of 9.3 ± 0.3 µM. In experiment [3], the IC50 is over 200 µM.
Consider `C=C(C)[C@]1(O)CC[C@]2(C)[C@H](O)CC[C@](C)(O)[C@@H]2C1` [Compound 5, Eudesm-11,13-ene-1β,4β,7α-triol], for which the IC50 in experiment [1] is 33.4 ± 0.49 µM; in experiment [2], 38.5 ± 0.55 µM; in experiment [3], over 200 µM.
Taken in the same sequence, the figures for `CC(C)(O)[C@@]1(O)CC[C@]2(C)C(C1)[C@@](C)(O)CC[C@H]2O` (stereo partly drawn) [Compound 6, 1β,4β,7β, 11-tetrahydroxyeudesmane] were 35.1 ± 0.6 µM, 33.2 ± 0.35 µM and over 200 µM.
The matching figures for `COc1cccc2c1C(=O)c1c(O)c3c(c(O)c1C2=O)C[C@@](O)(C(=O)CO)C[C@@H]3O[C@H]1C[C@H](N)[C@H](O)[C@H](C)O1` [Doxorubicin, reference compound]: 4.58 ± 0.47 µM, 4 ± 0.25 µM and 14.7 ± 0.5 µM.
